Assay results: ChEMBL document CHEMBL1201862, “PubChem BioAssay data set” (2004)
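Tested at 5 concentrations; 48 h exposure; 96-well plates; endpoints linearly interpolated, else capped at highest concentration. GI50 marks 50% less growth.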 The source made the active and inactive calls. Rule as the data show it: active = GI50 up to about 1.1 µM and inactive = higher.

Experiments:
Experiment in all cases: NCI tumour cell line growth inhibition, 48 h
MOLT-4 = test system: MOLT-4
SF-539 = test system: SF-539
NCI-H23 = test system: NCI-H23
A498 = test system: A498
HOP-92 = test system: HOP-92
RPMI-8226 = test system: RPMI-8226
NCI/ADR-RES = test system: NCI/ADR-RES
Malme-3M = test system: Malme-3M
HOP-62 = test system: HOP-62
T47D = test system: T47D
MDA-N = test system: MDA-N
SF-268 = test system: SF-268
COLO 205 = test system: COLO 205
HT-29 = test system: HT-29
KM12 = test system: KM12
LOX IMVI = test system: LOX IMVI
TK-10 = test system: TK-10
RXF 393 = test system: RXF 393
SK-OV-3 = test system: SK-OV-3
SK-MEL-2 = test system: SK-MEL-2
K562 = test system: K562
SF-295 = test system: SF-295
HCT-116 = test system: HCT-116
UACC-62 = test system: UACC-62
HCT-15 = test system: HCT-15
HCC 2998 = test system: HCC 2998
M14 = test system: M14
NCI-H522 = test system: NCI-H522
MDA-MB-231 = test system: MDA-MB-231
U-251 = test system: U-251
NCI-H226 = test system: NCI-H226
OVCAR-3 = test system: OVCAR-3
SW-620 = test system: SW-620
OVCAR-4 = test system: OVCAR-4
SNB-19 = test system: SNB-19
A549 = test system: A549
ACHN = test system: ACHN
OVCAR-8 = test system: OVCAR-8
IGROV-1 = test system: IGROV-1
UACC-257 = test system: UACC-257
CAKI-1 = test system: CAKI-1
EKVX = test system: EKVX
OVCAR-5 = test system: OVCAR-5
SK-MEL-5 = test system: SK-MEL-5
UO-31 = test system: UO-31
786-0 = test system: 786-0
PC-3 = test system: PC-3
MDA-MB-435 = test system: MDA-MB-435
DU-145 = test system: DU-145
SK-MEL-28 = test system: SK-MEL-28
SR = test system: SR
HL-60 = test system: HL-60
CCRF-CEM = test system: CCRF-CEM
NCI-H460 = test system: NCI-H460
SN12C = test system: SN12C
Hs-578T = test system: Hs-578T

Measured: GI50

CCOC(=O)c1c(N2CCCC2)nsc1Nc1ccc(F)cc1
29.6 µM: HCT-15
inactive: MOLT-4 23.9 µM | SF-539 64.7 µM | NCI-H23 27.1 µM | A498 40 µM | HOP-92 28.7 µM | RPMI-8226 36.6 µM | NCI/ADR-RES 34 µM | Malme-3M 21.9 µM | HOP-62 63.5 µM | T47D 9.57 µM | MDA-N 34.9 µM | SF-268 73.6 µM | COLO 205 48.5 µM | HT-29 23.6 µM | KM12 42.2 µM | LOX IMVI 53.7 µM | TK-10 57.7 µM | RXF 393 13.6 µM | SK-OV-3 41 µM | SK-MEL-2 19.2 µM | K562 29.8 µM | SF-295 60 µM | HCT-116 29.7 µM | UACC-62 45.4 µM | HCC 2998 31.4 µM | M14 48.8 µM | NCI-H522 33.5 µM | MDA-MB-231 39.4 µM | U-251 41.9 µM | NCI-H226 60.4 µM | OVCAR-3 > 100 µM | SW-620 40.4 µM | OVCAR-4 64.4 µM | SNB-19 > 100 µM | A549 27.9 µM | ACHN 31.2 µM | OVCAR-8 41.4 µM | IGROV-1 55 µM | UACC-257 45.1 µM | CAKI-1 37.5 µM | EKVX 8.38 µM | OVCAR-5 25.4 µM | SK-MEL-5 18 µM | UO-31 16 µM | 786-0 26.1 µM | PC-3 20.4 µM | MDA-MB-435 28.8 µM | DU-145 45.3 µM | SK-MEL-28 54.3 µM | SR 45.7 µM | HL-60 20.4 µM | CCRF-CEM 28.1 µM | NCI-H460 27 µM | SN12C 36.3 µM | Hs-578T 40.9 µM
